Measurements reported in patent publication US20230331718A1, “COMPOSITIONS FOR MODULATING SPLICING” (Skyhawk Therapeutics, Inc., priority 2020, published 2023).

Columns and labels:
[1] = system: SMN2 Protein; assay: SMN Protein Assay (MSD); type: cell-based, human; settings: SMA patient fibroblasts, 48 hours, 0.6 nM to 2.5 µM
Experimental: Spinal muscular atrophy (SMA) patient fibroblasts were plated in 96-well plates at 7,000 cells/well. Compounds were added in concentrations ranging from 0.6 nM to 2.5 µM, incubated for 48 hours and the cells were lysed with 100 µL of lysis buffer. 20 µL of lysate was used for SMN protein measurement by Mesoscale Discovery (MSD) assay developed by PharmOptima (Michigan). A standard curve prepared with SMN protein ranging from 1 µg/ml to 19.5pg/ml was used in each MSD plate to calculate the absolute SMN protein amount in each sample.

[2] = system: SMN2 Splicing D7 (SMN Δ7 transcript); assay: SMN Quantitative Splicing Assay (qPCR); type: cell-based, human; settings: 24 h, SMA patient fibroblasts (GM03813), 2.5 µM to 0.6 nM
Experimental: Spinal muscular atrophy (SMA) patient fibroblasts (GM03813, Coriell) were plated in 96-well plates at 50,000 cells/well. […] Treated cells were lysed and cDNA synthesized using the Fast Advanced Cells-to-Ct kit (Thermofisher A35378) according to the manufacturer’s instructions. 2 µL of each cDNA were used in qPCR reactions. […] Reactions were run in a Quant Studio 6 qPCR instrument with default settings.

Structure (SMILES) | EC50 [1] [nM] | IC50 ([2]; Homo sapiens, Fibroblast) [nM] | IC50 [2] [nM]
Cc1nc2cc(O)c(-c3ncc(N(C)[C@H]4C[C@@H]5CCC(N5)[C@H]4F)nn3)cc2nc1C [Compound 56] | 16 to 50 | 0.01 to 15 | –
CN(c1cnc(-c2cc3nccnc3cc2O)nn1)[C@@H]1CC2CC[C@H](N2)[C@@H]1F [Compound 57] | 16 to 50 | – | 101 to 500
CN(c1cnc(-c2cc3ncccc3cc2O)nn1)[C@H]1C[C@@H]2CCC(N2)[C@H]1F [Compound 58] | 16 to 50 | 16 to 50 | –
CN(c1cnc(-c2cc3occc(=O)c3cc2O)nn1)[C@@H]1C[C@@]2(C)CC[C@](C)(N2)[C@@H]1F [Compound 59] | 16 to 50 | 16 to 50 | –
CN(c1cnc(-c2cc3occc(=O)c3cc2O)nn1)[C@@H]1CC2CCC[C@H](N2)[C@@H]1F [Compound 60] | 0.01 to 15 | 16 to 50 | –
CN(c1cnc(-c2cc3occc(=O)c3cc2O)nn1)[C@@H]1C[C@@]2(C)CCC[C@](C)(N2)[C@@H]1F [Compound 61] | 0.01 to 15 | 51 to 100 | –
CN(c1cnc(-c2cc3occc(=O)c3cc2O)nn1)[C@H]1C[C@]2(C)CC[C@@](C)(N2)[C@H]1F [Compound 62] | 0.01 to 15 | 0.01 to 15 | –
CN(c1cnc(-c2cc3occc(=O)c3cc2O)nn1)[C@H]1C[C@@H]2CCCC(N2)[C@H]1F [Compound 63] | 0.01 to 15 | 16 to 50 | –
CN(c1cnc(-c2cc3occc(=O)c3cc2O)nn1)[C@H]1C[C@]2(C)CCC[C@@](C)(N2)[C@H]1F [Compound 64] | 0.01 to 15 | 0.01 to 15 | –
CN(c1cnc(-c2cc3c(F)cn(C)c(=O)c3cc2O)nn1)[C@@H]1CC2CC[C@H](N2)[C@@H]1F [Compound 65] | 0.01 to 15 | 16 to 50 | –
CN(c1cnc(-c2cc3c(F)cn(C)c(=O)c3cc2O)nn1)[C@H]1C[C@@H]2CCC(N2)[C@H]1F [Compound 66, 4-Fluoro-6-(6-{[(2R,3S,5S)-2-fluoro-8-azabicyclo[3.2.1]octan-3-yl](methyl)amino}-1,2,4-triazin-3-yl)-7-hydroxy-2-methylisoquinolin-1-one] | 0.01 to 15 | 0.01 to 15 | –
CN(c1cnc(-c2cc3occc(=O)c3cc2O)nn1)[C@@H]1CC2COC[C@H](N2)[C@@H]1F [Compound 67] | 51 to 100 | 101 to 500 | –
CN(c1cnc(-c2cc3occc(=O)c3cc2O)nn1)[C@H]1C[C@@H]2COCC(N2)[C@H]1F [Compound 68] | 501 to 10000 | 101 to 500 | –
CN(c1cnc(-c2cc3occc(=O)c3cc2O)nn1)[C@@H]1CC2COC[C@@H](C1)N2 [Compound 69] | 0.01 to 15 | 0.01 to 15 | –
Cc1ncc2cc(-c3ncc(N(C)[C@H]4C[C@@H]5CCC(N5)[C@H]4F)nn3)c(O)cc2n1 [Compound 72] | 51 to 100 | 51 to 100 | –
CN(c1cnc(-c2cc3c(=O)ccoc3cc2O)nn1)[C@@H]1CC2CC[C@H](N2)[C@@H]1F [Compound 75] | 16 to 50 | 101 to 500 | –
Cc1cc2cc(O)c(-c3ncc(N(C)[C@@H]4CC5CCC[C@H](N5)[C@@H]4F)nn3)cc2cn1 [Compound 77] | 16 to 50 | 16 to 50 | –
Cc1cc2cc(O)c(-c3ncc(N(C)[C@H]4C[C@@H]5CCCC(N5)[C@H]4F)nn3)cc2cn1 [Compound 78] | 0.01 to 15 | 0.01 to 15 | –
CCC1C[C@@H](N(C)c2cnc(-c3cc4oc(C(F)(F)F)c(C)c(=O)c4cc3O)nn2)[C@@H](F)[C@H](C)N1 (stereo partly shown) [Compound 79] | 16 to 50 | 101 to 500 | –
CN(c1cnc(-c2cc3oc(C(F)(F)F)cc(=O)c3cc2O)nn1)[C@H]1C[C@@H]2CCC(N2)[C@H]1F [Compound 80] | 0.01 to 15 | 0.01 to 15 | –
CN(c1cnc(-c2cc3c(=O)n(C)ccc3cc2O)nn1)[C@@H]1CC2CC[C@H](N2)[C@@H]1F [Compound 81] | 16 to 50 | 51 to 100 | –

Structure (SMILES) | EC50 [1] [nM] | IC50 ([2]; Homo sapiens, Fibroblast) [nM] | IC50 [2] [nM]
CN(c1cnc(-c2cc3c(=O)n(C)ccc3cc2O)nn1)[C@H]1CC2CC[C@@H](N2)[C@H]1F [Compound 82] | 0.01 to 15 | 0.01 to 15 | –
CCn1ccc2cc(O)c(-c3ncc(N(C)[C@@H]4C[C@H]5CCC(N5)[C@@H]4F)nn3)cc2c1=O [Compound 83] | 16 to 50 | 101 to 500 | –
CCn1ccc2cc(O)c(-c3ncc(N(C)[C@H]4CC5CC[C@@H](N5)[C@H]4F)nn3)cc2c1=O [Compound 84] | 0.01 to 15 | 0.01 to 15 | –
Cc1nc2cc(O)c(-c3ncc(N(C)[C@H]4CC5CC[C@@H](N5)[C@H]4F)nn3)cc2nc1C [Compound 85] | 16 to 50 | 0.01 to 15 | –
Cc1nc2cc(O)c(-c3ncc(N(C)[C@@H]4C[C@H]5CCC(N5)[C@@H]4F)nn3)cc2nc1C [Compound 86] | 51 to 100 | 51 to 100 | –
Cc1nc2cc(O)c(-c3ncc(N(C)[C@H]4C[C@]5(C)CC[C@@](C)(N5)[C@H]4F)nn3)cc2nc1C [Compound 87] | 0.01 to 15 | 0.01 to 15 | –
Cc1nc2cc(O)c(-c3ncc(N(C)[C@@H]4C[C@@]5(C)CC[C@](C)(N5)[C@@H]4F)nn3)cc2nc1C [Compound 88] | 51 to 100 | 16 to 50 | –
CN(c1cnc(-c2cc3occ(C(F)(F)F)c(=O)c3cc2O)nn1)[C@@H]1C[C@H]2CC[C@H](N2)[C@@H]1F [Compound 89] | 51 to 100 | 101 to 500 | –
CN(c1cnc(-c2cc3occ(C(F)(F)F)c(=O)c3cc2O)nn1)[C@H]1C[C@@H]2CC[C@@H](N2)[C@H]1F [Compound 90] | 16 to 50 | 16 to 50 | –
CCc1coc2cc(-c3ncc(N(C)[C@@H]4C[C@H]5CC[C@H](N5)[C@@H]4F)nn3)c(O)cc2c1=O [Compound 93] | 16 to 50 | 16 to 50 | –
CN(c1cnc(-c2cc3ccn(CC(F)(F)F)c(=O)c3cc2O)nn1)[C@H]1C[C@@H]2CC[C@@H](N2)[C@H]1F [Compound 100] | 0.01 to 15 | 16 to 50 | –
Cc1coc2cc(-c3ncc(N(C)[C@@H]4CC5CCCC(N5)[C@@H]4F)nn3)c(O)cc2c1=O (stereo partly shown) [Compound 101] | 0.01 to 15 | 0.01 to 15 | –
Cc1coc2cc(-c3ncc(N(C)[C@H]4CC5CCCC(N5)[C@H]4F)nn3)c(O)cc2c1=O (stereo partly shown) [Compound 102] | 0.01 to 15 | 0.01 to 15 | –
Cc1cnc2cc(-c3ncc(N(C)[C@@H]4CC5CCCC(N5)[C@@H]4F)nn3)c(O)cc2n1 (stereo partly shown) [Compound 105] | 16 to 50 | 101 to 500 | –
Cc1cnc2cc(-c3ncc(N(C)[C@H]4CC5CCCC(N5)[C@H]4F)nn3)c(O)cc2n1 (stereo partly shown) [Compound 106] | 0.01 to 15 | 16 to 50 | –
CN(c1cnc(-c2cc3c(=O)ccoc3cc2O)nn1)[C@@H]1CC2CCCC(N2)[C@@H]1F (stereo partly shown) [Compound 109] | 501 to 10000 | 501 to 10000 | –
CN(c1cnc(-c2cc3c(=O)ccoc3cc2O)nn1)[C@H]1CC2CCCC(N2)[C@H]1F (stereo partly shown) [Compound 110] | 101 to 500 | 51 to 100 | –
Cc1cc(=O)c2cc(-c3ncc(N(C)[C@@H]4CC5CCCC(N5)[C@@H]4F)nn3)c(O)cc2o1 (stereo partly shown) [Compound 111] | 51 to 100 | 101 to 500 | –
Cc1cc(=O)c2cc(-c3ncc(N(C)[C@H]4C[C@@H]5CCC[C@@H](N5)[C@H]4F)nn3)c(O)cc2o1 [Compound 112] | 16 to 50 | 16 to 50 | –
CCc1cc(=O)c2cc(-c3ncc(N(C)[C@@H]4C[C@H]5CCCC(N5)[C@@H]4F)nn3)c(O)cc2o1 [Compound 115] | 16 to 50 | 101 to 500 | –
